Laboratory results reported in ChEMBL document CHEMBL3525990, “Organic anion transporter 3 interacts selectively with lipophilic β-lactam antibiotics” (Drug Metab Dispos, 2013).

Tests used:
[1] = biological target: T1, Solute carrier family 22 member 6 (Mus musculus, UniProt Q8VC69); experiment: Inhibition of mouse OAT1 expressed in CHO cells assessed as inhibition of fluorescein uptake at 500 uM over 20 mins relative to untreated-control; type: ADME, cell-based
T1 sequence (Q8VC69 whole entry): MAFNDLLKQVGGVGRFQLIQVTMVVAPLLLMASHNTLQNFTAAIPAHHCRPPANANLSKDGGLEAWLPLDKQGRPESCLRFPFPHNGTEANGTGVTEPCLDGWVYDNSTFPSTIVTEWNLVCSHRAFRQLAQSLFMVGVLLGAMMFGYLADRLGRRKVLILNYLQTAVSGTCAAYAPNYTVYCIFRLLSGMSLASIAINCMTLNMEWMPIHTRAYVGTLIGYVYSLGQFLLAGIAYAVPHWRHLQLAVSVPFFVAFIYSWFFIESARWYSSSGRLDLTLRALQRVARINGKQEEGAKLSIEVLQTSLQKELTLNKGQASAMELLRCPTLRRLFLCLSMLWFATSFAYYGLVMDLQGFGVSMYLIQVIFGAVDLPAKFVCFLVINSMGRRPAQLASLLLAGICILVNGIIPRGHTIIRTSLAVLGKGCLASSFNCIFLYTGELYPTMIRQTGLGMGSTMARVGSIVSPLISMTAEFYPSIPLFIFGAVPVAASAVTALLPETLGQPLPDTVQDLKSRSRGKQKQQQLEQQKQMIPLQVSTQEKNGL

[2] = biological target: T2, Organic anion transporter 3 (Mus musculus, UniProt O88909); experiment: Inhibition of mouse OAT3 expressed in CHO cells assessed as inhibition of fluorescein uptake at 500 uM over 20 mins relative to untreated-control; type: ADME, cell-based
T2 sequence (O88909 whole entry): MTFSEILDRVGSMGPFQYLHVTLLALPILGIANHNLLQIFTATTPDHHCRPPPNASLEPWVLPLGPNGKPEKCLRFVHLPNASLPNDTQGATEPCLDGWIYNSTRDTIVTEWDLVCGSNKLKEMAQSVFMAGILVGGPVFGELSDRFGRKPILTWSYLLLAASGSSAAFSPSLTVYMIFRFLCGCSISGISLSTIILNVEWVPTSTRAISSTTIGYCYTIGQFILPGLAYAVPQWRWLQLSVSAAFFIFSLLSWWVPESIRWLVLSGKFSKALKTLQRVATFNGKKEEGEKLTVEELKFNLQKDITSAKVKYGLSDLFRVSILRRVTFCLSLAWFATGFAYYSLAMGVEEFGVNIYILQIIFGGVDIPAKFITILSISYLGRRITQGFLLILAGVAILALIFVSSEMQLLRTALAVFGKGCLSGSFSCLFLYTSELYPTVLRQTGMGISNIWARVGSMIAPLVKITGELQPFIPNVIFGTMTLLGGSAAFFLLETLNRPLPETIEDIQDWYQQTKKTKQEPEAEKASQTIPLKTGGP

[3] = biological target: T3, Organic anion transporter 3 (Homo sapiens, UniProt Q8TCC7); experiment: (§1) Inhibition of human OAT3 expressed in CHO cells assessed as inhibition of fluorescein uptake at 500 uM over 20 mins relative to untreated-control; type: ADME, cell-based; conditions: cho, 20 min, 500 µM
T3 sequence (Q8TCC7 whole entry): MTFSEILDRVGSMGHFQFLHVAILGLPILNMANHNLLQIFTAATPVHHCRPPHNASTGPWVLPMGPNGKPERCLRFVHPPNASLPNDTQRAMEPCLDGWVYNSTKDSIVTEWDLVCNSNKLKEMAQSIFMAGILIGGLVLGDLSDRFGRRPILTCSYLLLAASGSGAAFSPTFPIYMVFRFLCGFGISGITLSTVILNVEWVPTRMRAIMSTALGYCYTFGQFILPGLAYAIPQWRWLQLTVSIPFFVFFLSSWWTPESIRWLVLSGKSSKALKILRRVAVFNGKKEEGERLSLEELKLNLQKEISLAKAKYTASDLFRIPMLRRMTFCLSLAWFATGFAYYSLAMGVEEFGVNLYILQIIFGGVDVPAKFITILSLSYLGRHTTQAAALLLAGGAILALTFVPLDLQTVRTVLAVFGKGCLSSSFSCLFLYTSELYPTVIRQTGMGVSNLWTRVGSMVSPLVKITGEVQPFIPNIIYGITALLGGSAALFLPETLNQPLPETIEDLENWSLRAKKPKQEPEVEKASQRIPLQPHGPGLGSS

OAT3 [4] = biological target: T4, OAT3 (Homo sapiens, UniProt Q8TCC7); experiment: Inhibition of human OAT3 expressed in CHO cells assessed as inhibition of fluorescein uptake over 20 mins relative to untreated-control; type: ADME, cell-based; conditions: CHO cells expressing human OAT3, probe fluorescein
T4 sequence (Q8TCC7 whole entry): T3 sequence (Q8TCC7 whole entry)

[5] = biological target: T3, Organic anion transporter 3; experiment: Inhibition of human OAT3 using estrone-3-sulfate as substrate; type: ADME
[6] = biological target: T2, Organic anion transporter 3; experiment: Inhibition of mouse OAT3 expressed in CHO cells assessed as inhibition of fluorescein uptake at 1 mM over 20 mins relative to untreated-control; type: ADME, cell-based; conditions: 1000 µM
OAT3 [7] = biological target: T4, OAT3; experiment: as §1; type: ADME, cell-based; conditions: CHO cells expressing human OAT3, probe fluorescein
[8] = biological target: T2, Organic anion transporter 3; experiment: Inhibition of mouse OAT3 expressed in CHO cells assessed as inhibition of fluorescein uptake over 20 mins; type: ADME, cell-based
[9] = biological target: T2, Organic anion transporter 3; experiment: Inhibition of mouse OAT3 expressed in CHO cells assessed as inhibition of fluorescein uptake at 1 mM after 10 mins; type: ADME, cell-based; conditions: 1000 µM
[10] = biological target: T2, Organic anion transporter 3; experiment: Inhibition of mouse OAT3 expressed in CHO cells assessed as inhibition of fluorescein uptake over 20 mins by Michaelis-Menten method; type: ADME, cell-based
[11] = biological target: T3, Organic anion transporter 3; experiment: Inhibition of human OAT3 expressed in CHO cells assessed as inhibition of fluorescein uptake at 1 mM over 20 mins relative to untreated-control; type: ADME, cell-based; conditions: 1000 µM
[12] = biological target: T3, Organic anion transporter 3; experiment: Inhibition of human OAT3 expressed in CHO cells assessed as inhibition of fluorescein uptake over 20 mins by Michaelis-Menten method; type: ADME, cell-based

SMILES | inhibition (INH) [1] | inhibition (INH) [2] | inhibition (INH) [3] | IC50 [8] [µM] | other results
CC1(C)S[C@@H]2[C@H](N)C(=O)N2[C@H]1C(=O)O | Not Active | Not Active | Not Active | – | –
CC1(C)S[C@@H]2[C@H](NC(=O)[C@H](N)c3ccccc3)C(=O)N2[C@H]1C(=O)O [AMPICILLIN] | Not Active | Not Active | Not Active | – | –
CC1(C)S[C@@H]2[C@H](NC(=O)[C@H](NC(=O)N3CCNC3=O)c3ccccc3)C(=O)N2[C@H]1C(=O)O [AZLOCILLIN] | Not Active | Not Active | Not Active | – | –
C[C@H]1[C@H](NC(=O)/C(=N\OC(C)(C)C(=O)O)c2csc(N)n2)C(=O)N1S(=O)(=O)O [AZTREONAM] | Not Active | Not Active | Not Active | – | –
CC1(C)S[C@@H]2[C@H](NC(=O)C(C(=O)O)c3ccccc3)C(=O)N2[C@H]1C(=O)O (some centres not stated) [CARBENICILLIN] | – | Not Active | Not Active | – | inhibition at 20 min (OAT3 [4]): 70%
N[C@@H](C(=O)N[C@@H]1C(=O)N2C(C(=O)O)=C(Cl)CS[C@H]12)c1ccccc1 [CEFACLOR ANHYDROUS] | Not Active | Not Active | Active | – | IC50 [5]: 120 µM
CC1=C(C(=O)O)N2C(=O)[C@@H](NC(=O)[C@H](N)c3ccc(O)cc3)[C@H]2SC1 [CEFADROXIL] | – | Not Active | – | – | inhibition (INH) [6]: Not Active; inhibition at 20 min, 500 µM (OAT3 [7]): 20%
CO[C@@]1(NC(=O)CSCC#N)C(=O)N2C(C(=O)O)=C(CSc3nnnn3C)CS[C@@H]21 [CEFMETAZOLE] | Active | Not Active | Not Active | 105 | –
CCN1CCN(C(=O)N[C@@H](C(=O)N[C@@H]2C(=O)N3C(C(=O)O)=C(CSc4nnnn4C)CS[C@H]23)c2ccc(O)cc2)C(=O)C1=O [CEFOPERAZONE] | – | Not Active | Not Active | – | –
CO/N=C(\C(=O)N[C@@H]1C(=O)N2C(C(=O)O)=C(COC(C)=O)CS[C@H]12)c1csc(N)n1 [CEFOTAXIME] | – | Not Active | Not Active | – | –
CO[C@@]1(NC(=O)Cc2cccs2)C(=O)N2C(C(=O)O)=C(COC(N)=O)CS[C@@H]21 [CEFOXITIN] | Not Active | Not Active | Not Active | 57 | –
NC(=O)c1cc[n+](CC2=C(C(=O)O)N3C(=O)[C@@H](NC(=O)[C@@H](c4ccccc4)S(=O)(=O)[O-])[C@H]3SC2)cc1 [CEFSULODIN] | Not Active | Not Active | Not Active | – | –
CC(C)(O/N=C(\C(=O)N[C@@H]1C(=O)N2C(C(=O)[O-])=C(C[n+]3ccccc3)CS[C@H]12)c1csc(N)n1)C(=O)O [CEFTAZIDIME] | Not Active | Not Active | Not Active | – | –
CO/N=C(\C(=O)N[C@@H]1C(=O)N2C(C(=O)O)=C(CSC(=O)c3ccco3)CS[C@H]12)c1csc(N)n1 [CEFTIOFUR] | Not Active | Not Active | Not Active | 35.7 | –
CO/N=C(\C(=O)N[C@@H]1C(=O)N2C(C(=O)O)=C(COC(N)=O)CS[C@H]12)c1ccco1 [CEFUROXIME] | Not Active | Not Active | Not Active | – | –
CC1=C(C(=O)O)N2C(=O)[C@@H](NC(=O)[C@H](N)c3ccccc3)[C@H]2SC1 [CEPHALEXIN ANHYDROUS] | Not Active | – | Not Active | – | –
CC(=O)OCC1=C(C(=O)O)N2C(=O)[C@@H](NC(=O)Cc3cccs3)[C@H]2SC1 [CEPHALOTHIN] | – | Not Active | Not Active | 33.3 | –
Cc1onc(-c2ccccc2Cl)c1C(=O)N[C@@H]1C(=O)N2[C@@H]1SC(C)(C)[C@@H]2C(=O)O [CLOXACILLIN] | Not Active | Not Active | Not Active | 30.9 | –
Cc1onc(-c2c(Cl)cccc2Cl)c1C(=O)N[C@@H]1C(=O)N2[C@@H]1SC(C)(C)[C@@H]2C(=O)O [DICLOXACILLIN] | Active | Active | Active | 16.6 | –
COc1cccc(OC)c1C(=O)N[C@@H]1C(=O)N2[C@@H]1SC(C)(C)[C@@H]2C(=O)O [METHICILLIN] | Not Active | Not Active | Not Active | 116 | –
CCOc1ccc2ccccc2c1C(=O)N[C@@H]1C(=O)N2[C@@H]1SC(C)(C)[C@@H]2C(=O)O [NAFCILLIN] | Not Active | Not Active | Not Active | 34.9 | –
Cc1onc(-c2ccccc2)c1C(=O)N[C@@H]1C(=O)N2[C@@H]1SC(C)(C)[C@@H]2C(=O)O [OXACILLIN] | Not Active | Active | Active | 35 | –
CC1(C)S[C@@H]2[C@H](NC(=O)Cc3ccccc3)C(=O)N2[C@H]1C(=O)O [PENICILLIN G] | – | – | Active | 89.4 | –
CC1(C)S[C@@H]2[C@H](NC(=O)COc3ccccc3)C(=O)N2[C@H]1C(=O)O [PENICILLIN V] | Not Active | Not Active | Not Active | 48.6 | –
CCN1CCN(C(=O)N[C@@H](C(=O)N[C@@H]2C(=O)N3[C@@H]2SC(C)(C)[C@@H]3C(=O)O)c2ccccc2)C(=O)C1=O [PIPERACILLIN] | Active | Not Active | Not Active | – | –
CCCN(CCC)S(=O)(=O)c1ccc(C(=O)O)cc1 [PROBENECID] | – | Not Active | Not Active | 3.02 | inhibition (INH) [9]: Active; inhibition (INH) [10]: Dose-dependent effect; inhibition (INH) [11]: Active; inhibition (INH) [12]: Dose-dependent effect; inhibition (INH) [6]: Active
CC1(C)S[C@@H]2[C@H](NC(=O)[C@H](C(=O)O)c3ccsc3)C(=O)N2[C@H]1C(=O)O [TICARCILLIN] | – | Not Active | Not Active | 233 | –
